Laboratory results: ChEMBL document CHEMBL5107949, “Design, synthesis, and antibacterial activity of N-(trifluoromethyl)phenyl substituted pyrazole derivatives” (RSC Med Chem, 2021)
In brackets after ≈: the same amount, converted by molar mass.

How the values were obtained:
[1] = tested on: Staphylococcus aureus; assay: Antibacterial activity against antibiotic susceptible Staphylococcus aureus ATCC 25923 assessed as inhibition of bacterial growth by CLSI protocol based broth microdilution method; assay type: functional
[2] = tested on: Staphylococcus aureus; assay: Antibacterial activity against antibiotic resistant Staphylococcus aureus ATCC 33591 assessed as inhibition of bacterial growth by CLSI protocol based broth microdilution method; assay type: functional
[3] = tested on: Staphylococcus aureus; assay: Antibacterial activity against antibiotic resistant Staphylococcus aureus ATCC 33592 assessed as inhibition of bacterial growth by CLSI protocol based broth microdilution method; assay type: functional
[4] = tested on: Staphylococcus aureus; assay: Antibacterial activity against antibiotic resistant Staphylococcus aureus BAA-2312 assessed as inhibition of bacterial growth by CLSI protocol based broth microdilution method; assay type: functional
[5] = tested on: Staphylococcus aureus; assay: Antibacterial activity against antibiotic resistant Staphylococcus aureus ATCC 700699 assessed as inhibition of bacterial growth by CLSI protocol based broth microdilution method; assay type: functional
[6] = tested on: Staphylococcus epidermidis; assay: Antibacterial activity against antibiotic resistant Staphylococcus epidermidis ATCC 700296 assessed as inhibition of bacterial growth by CLSI protocol based broth microdilution method; assay type: functional
[7] = tested on: Bacillus subtilis; assay: Antibacterial activity against antibiotic resistant Bacillus subtilis ATCC 6623 assessed as inhibition of bacterial growth by CLSI protocol based broth microdilution method; assay type: functional
[8] = tested on: Enterococcus faecalis; assay: Antibacterial activity against antibiotic susceptible Enterococcus faecalis ATCC 29212 assessed as inhibition of bacterial growth by CLSI protocol based broth microdilution method; assay type: functional
[9] = tested on: Enterococcus faecium; assay: Antibacterial activity against vancomycin resistant Enterococcus faecium ATCC 700221 assessed as inhibition of bacterial growth by CLSI protocol based broth microdilution method; assay type: functional
[10] = Cytotoxicity against human HEK293 cells reduction in cell viability incubated for 24 hrs by resazurin cell viability assay; assay type: toxicity, cell-based

| Structure (SMILES) | MIC [1] [µg/mL] | MIC [2] [µg/mL] | MIC [3] [µg/mL] | MIC [4] [µg/mL] | MIC [5] [µg/mL] | MIC [6] [µg/mL] | MIC [7] [µg/mL] | MIC [8] [µg/mL] | MIC [9] [µg/mL] | IC50 at 24 h [10] [µg/mL] |
| --- | --- | --- | --- | --- | --- | --- | --- | --- | --- | --- |
| O=C(O)c1ccc(-c2nn(-c3ccc(C(F)(F)F)cc3)cc2CNc2ccc([N+](=O)[O-])cc2)cc1 | 25 (≈ 51.8 µM) | 25 (≈ 51.8 µM) | 12.5 (≈ 25.9 µM) | 25 (≈ 51.8 µM) | 12.5 (≈ 25.9 µM) | 25 (≈ 51.8 µM) | 12.5 (≈ 25.9 µM) | 25 (≈ 51.8 µM) | 25 (≈ 51.8 µM) | – |
| CC(C)(C)c1ccc(NCc2cn(-c3ccc(C(F)(F)F)cc3)nc2-c2ccc(C(=O)O)cc2)cc1 | 1.56 (≈ 3.16 µM) | 3.12 (≈ 6.32 µM) | 1.56 (≈ 3.16 µM) | 3.12 (≈ 6.32 µM) | 1.56 (≈ 3.16 µM) | 3.12 (≈ 6.32 µM) | 1.56 (≈ 3.16 µM) | 3.12 (≈ 6.32 µM) | 1.56 (≈ 3.16 µM) | 8 (≈ 16.2 µM) |
| COc1ccc(NCc2cn(-c3ccc(C(F)(F)F)cc3)nc2-c2ccc(C(=O)O)cc2)cc1C(F)(F)F | 12.5 (≈ 23.3 µM) | 25 (≈ 46.7 µM) | 12.5 (≈ 23.3 µM) | 12.5 (≈ 23.3 µM) | 6.25 (≈ 11.7 µM) | 25 (≈ 46.7 µM) | 6.25 (≈ 11.7 µM) | 25 (≈ 46.7 µM) | 12.5 (≈ 23.3 µM) | – |
| Cc1ccc(NCc2cn(-c3ccc(C(F)(F)F)cc3)nc2-c2ccc(C(=O)O)cc2)cc1Cl | 3.12 (≈ 6.42 µM) | 6.25 (≈ 12.9 µM) | 3.12 (≈ 6.42 µM) | 3.12 (≈ 6.42 µM) | 1.56 (≈ 3.21 µM) | 6.25 (≈ 12.9 µM) | 1.56 (≈ 3.21 µM) | 6.25 (≈ 12.9 µM) | 3.12 (≈ 6.42 µM) | > 12 |
| O=C(O)c1ccc(-c2nn(-c3ccc(C(F)(F)F)cc3)cc2CNc2cccc(Br)c2)cc1 | 3.12 (≈ 6.04 µM) | 3.12 (≈ 6.04 µM) | 6.25 (≈ 12.1 µM) | 6.25 (≈ 12.1 µM) | 3.12 (≈ 6.04 µM) | 12.5 (≈ 24.2 µM) | 6.25 (≈ 12.1 µM) | 12.5 (≈ 24.2 µM) | 6.25 (≈ 12.1 µM) | – |
| CN1CCN(c2ccc(NCc3cn(-c4ccc(C(F)(F)F)cc4)nc3-c3ccc(C(=O)O)cc3)cc2C(F)(F)F)CC1 | 25 (≈ 41.4 µM) | 50 (≈ 82.8 µM) | 12.5 (≈ 20.7 µM) | 25 (≈ 41.4 µM) | 12.5 (≈ 20.7 µM) | – | 25 (≈ 41.4 µM) | 25 (≈ 41.4 µM) | 25 (≈ 41.4 µM) | – |
| O=C(O)c1ccc(-c2nn(-c3ccc(C(F)(F)F)cc3)cc2CNc2ccc(F)cc2)cc1 | 25 (≈ 54.9 µM) | 25 (≈ 54.9 µM) | 25 (≈ 54.9 µM) | 25 (≈ 54.9 µM) | 12.5 (≈ 27.4 µM) | 50 (≈ 110 µM) | 25 (≈ 54.9 µM) | – | 25 (≈ 54.9 µM) | – |
| O=C(O)c1ccc(-c2nn(-c3ccc(C(F)(F)F)cc3)cc2CNc2cccc(Cl)c2F)cc1 | 3.12 (≈ 6.37 µM) | 6.25 (≈ 12.8 µM) | 3.12 (≈ 6.37 µM) | 6.25 (≈ 12.8 µM) | 3.12 (≈ 6.37 µM) | 12.5 (≈ 25.5 µM) | 1.56 (≈ 3.18 µM) | 12.5 (≈ 25.5 µM) | 6.25 (≈ 12.8 µM) | – |
| CC(C)c1ccc(NCc2cn(-c3ccc(C(F)(F)F)cc3)nc2-c2ccc(C(=O)O)cc2)cc1 | 3.12 (≈ 6.51 µM) | 12.5 (≈ 26.1 µM) | 3.12 (≈ 6.51 µM) | 6.25 (≈ 13 µM) | 3.12 (≈ 6.51 µM) | 12.5 (≈ 26.1 µM) | 3.12 (≈ 6.51 µM) | 6.25 (≈ 13 µM) | 3.12 (≈ 6.51 µM) | – |
| O=C(O)c1ccc(-c2nn(-c3ccc(C(F)(F)F)cc3)cc2CNc2ccc(Br)cc2)cc1 | 6.25 (≈ 12.1 µM) | 6.25 (≈ 12.1 µM) | 3.12 (≈ 6.04 µM) | 6.25 (≈ 12.1 µM) | 3.12 (≈ 6.04 µM) | 12.5 (≈ 24.2 µM) | 3.12 (≈ 6.04 µM) | 6.25 (≈ 12.1 µM) | 6.25 (≈ 12.1 µM) | – |
| O=C(O)c1ccc(-c2nn(-c3ccc(C(F)(F)F)cc3)cc2CNc2cccc(F)c2)cc1 | 25 (≈ 54.9 µM) | 25 (≈ 54.9 µM) | 25 (≈ 54.9 µM) | 25 (≈ 54.9 µM) | 12.5 (≈ 27.4 µM) | 25 (≈ 54.9 µM) | 12.5 (≈ 27.4 µM) | 25 (≈ 54.9 µM) | 12.5 (≈ 27.4 µM) | – |
| O=C(O)c1ccc(-c2nn(-c3ccc(C(F)(F)F)cc3)cc2CNc2ccccc2)cc1 | 25 (≈ 57.2 µM) | 50 (≈ 114 µM) | 25 (≈ 57.2 µM) | 25 (≈ 57.2 µM) | 25 (≈ 57.2 µM) | 25 (≈ 57.2 µM) | 25 (≈ 57.2 µM) | – | 25 (≈ 57.2 µM) | – |
| O=C(O)c1ccc(-c2nn(-c3ccc(C(F)(F)F)cc3)cc2CNc2ccc(F)c(Cl)c2)cc1 | 3.12 (≈ 6.37 µM) | 12.5 (≈ 25.5 µM) | 3.12 (≈ 6.37 µM) | 6.25 (≈ 12.8 µM) | 3.12 (≈ 6.37 µM) | 12.5 (≈ 25.5 µM) | 3.12 (≈ 6.37 µM) | 12.5 (≈ 25.5 µM) | 6.25 (≈ 12.8 µM) | – |
| O=C(O)c1ccc(-c2nn(-c3ccc(C(F)(F)F)cc3)cc2CNc2ccc(Cl)cc2)cc1 | 6.25 (≈ 13.2 µM) | 6.25 (≈ 13.2 µM) | 6.25 (≈ 13.2 µM) | 12.5 (≈ 26.5 µM) | 6.25 (≈ 13.2 µM) | 12.5 (≈ 26.5 µM) | 6.25 (≈ 13.2 µM) | 12.5 (≈ 26.5 µM) | 6.25 (≈ 13.2 µM) | – |
| COc1ccc(NCc2cn(-c3ccc(C(F)(F)F)cc3)nc2-c2ccc(C(=O)O)cc2)cc1 | 50 (≈ 107 µM) | – | 25 (≈ 53.5 µM) | – | 25 (≈ 53.5 µM) | – | 25 (≈ 53.5 µM) | – | – | – |
| Cc1cc(NCc2cn(-c3ccc(C(F)(F)F)cc3)nc2-c2ccc(C(=O)O)cc2)ccc1F | 12.5 (≈ 26.6 µM) | 25 (≈ 53.3 µM) | 6.25 (≈ 13.3 µM) | 25 (≈ 53.3 µM) | 6.25 (≈ 13.3 µM) | 25 (≈ 53.3 µM) | 12.5 (≈ 26.6 µM) | 25 (≈ 53.3 µM) | 12.5 (≈ 26.6 µM) | – |
| O=C(O)c1ccc(-c2nn(-c3ccc(C(F)(F)F)cc3)cc2CNc2ccc(C(F)(F)F)cc2)cc1 | 12.5 (≈ 24.7 µM) | 12.5 (≈ 24.7 µM) | 6.25 (≈ 12.4 µM) | 12.5 (≈ 24.7 µM) | 3.12 (≈ 6.17 µM) | 12.5 (≈ 24.7 µM) | 6.25 (≈ 12.4 µM) | 25 (≈ 49.5 µM) | 12.5 (≈ 24.7 µM) | – |
| CSc1ccc(NCc2cn(-c3ccc(C(F)(F)F)cc3)nc2-c2ccc(C(=O)O)cc2)cc1 | 12.5 (≈ 25.9 µM) | 25 (≈ 51.7 µM) | 25 (≈ 51.7 µM) | 25 (≈ 51.7 µM) | 12.5 (≈ 25.9 µM) | 50 (≈ 103 µM) | 25 (≈ 51.7 µM) | 25 (≈ 51.7 µM) | 12.5 (≈ 25.9 µM) | – |
| O=C(O)c1ccc(-c2nn(-c3ccc(C(F)(F)F)cc3)cc2CNc2ccc(F)c([N+](=O)[O-])c2)cc1 | 12.5 (≈ 25 µM) | 25 (≈ 50 µM) | 12.5 (≈ 25 µM) | 25 (≈ 50 µM) | 6.25 (≈ 12.5 µM) | 25 (≈ 50 µM) | 12.5 (≈ 25 µM) | – | – | – |
| O=C(O)c1ccc(-c2nn(-c3ccc(C(F)(F)F)cc3)cc2CNc2ccc(Cl)c(Cl)c2)cc1 | 1.56 (≈ 3.08 µM) | 1.56 (≈ 3.08 µM) | 1.56 (≈ 3.08 µM) | 1.56 (≈ 3.08 µM) | 0.78 (≈ 1.54 µM) | 3.12 (≈ 6.16 µM) | 0.39 (≈ 0.77 µM) | 3.12 (≈ 6.16 µM) | 1.56 (≈ 3.08 µM) | > 12 |
| O=C(O)c1ccc(-c2nn(-c3ccc(C(F)(F)F)cc3)cc2CNc2ccc(F)c(F)c2)cc1 | 12.5 (≈ 26.4 µM) | 25 (≈ 52.8 µM) | 6.25 (≈ 13.2 µM) | 25 (≈ 52.8 µM) | 6.25 (≈ 13.2 µM) | 25 (≈ 52.8 µM) | 12.5 (≈ 26.4 µM) | 25 (≈ 52.8 µM) | 12.5 (≈ 26.4 µM) | – |
